Tested on: 485176-168-R4-J1-PDC spheroids with HUVEC/MSC, viability
Assay: Anticancer human tumor 485176-168-R4-J1-PDC patient-derived pancreatic adenocarcinoma cell line growth inhibition [GQUAD]
Details: for IC50: curve of first compound; for viability, T/C: stronger effect = lower value; active means viability on the fitted dose curve at most 10% of control; inactive means the rest
Procedure, shortened: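 Multi-cell-type spheroids of tumor cells with HUVEC and mesenchymal stem cells, treated with drug combinations. Concentrations descend in half-log steps from near clinical Cmax, or from 10 microM where Cmax is unknown; viability read-out.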

[1] = second compound 0.0316 µM, first compound 0.0316 µM
[2] = second compound 0.0316 µM, first compound 0.1 µM
[3] = second compound 0.0316 µM, first compound 0.316 µM
[4] = second compound 0.0316 µM, first compound 1 µM
[5] = second compound 0.0316 µM, first compound 3.16 µM
[6] = second compound 0.0316 µM, first compound 10 µM
[7] = second compound 0.1 µM, first compound 0.0316 µM
[8] = second compound 0.1 µM, first compound 0.1 µM
[9] = second compound 0.1 µM, first compound 0.316 µM
[10] = second compound 0.1 µM, first compound 1 µM
[11] = second compound 0.1 µM, first compound 3.16 µM
[12] = second compound 0.1 µM, first compound 10 µM
[13] = second compound 0.316 µM, first compound 0.0316 µM
[14] = second compound 0.316 µM, first compound 0.1 µM
[15] = second compound 0.316 µM, first compound 0.316 µM
[16] = second compound 0.316 µM, first compound 1 µM
[17] = second compound 0.316 µM, first compound 3.16 µM
[18] = second compound 0.316 µM, first compound 10 µM
[19] = second compound 1 µM, first compound 0.0316 µM
[20] = second compound 1 µM, first compound 0.1 µM
[21] = second compound 1 µM, first compound 0.316 µM
[22] = second compound 1 µM, first compound 1 µM
[23] = second compound 1 µM, first compound 3.16 µM
[24] = second compound 1 µM, first compound 10 µM
[25] = second compound 3.16 µM, first compound 0.0316 µM
[26] = second compound 3.16 µM, first compound 0.1 µM
[27] = second compound 3.16 µM, first compound 0.316 µM
[28] = second compound 3.16 µM, first compound 1 µM
[29] = second compound 3.16 µM, first compound 3.16 µM
[30] = second compound 3.16 µM, first compound 10 µM
[31] = second compound 10 µM, first compound 0.0316 µM
[32] = second compound 10 µM, first compound 0.1 µM
[33] = second compound 10 µM, first compound 0.316 µM
[34] = second compound 10 µM, first compound 1 µM
[35] = second compound 10 µM, first compound 3.16 µM
[36] = second compound 10 µM, first compound 10 µM
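Further: spheroids exposed to compounds for seven days before readout.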
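Wherever viability, T/C is given: percent viability relative to DMSO vehicle control wells as 100%.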

CC1COCCN1c1cc(C2(O)CC3CCC(C2)O3)c2cnn(-c3ccn[nH]3)c2n1 (stereo not drawn) + Cc1cnc(CNC(=O)c2c(=O)c3ccc(N4CCCN(C)CC4)nc3n3c2sc2ccccc23)cn1
active: viability, T/C [4] 8.41% | viability, T/C [5] 10.1% | viability, T/C [6] 8.06% | viability, T/C [10] 9.8% | viability, T/C [11] 11.5% | viability, T/C [12] 8.77% | viability, T/C [17] 10.9% | viability, T/C [18] 9.41% | viability, T/C [21] 9.3% | viability, T/C [22] 7.89% | viability, T/C [23] 9.58% | viability, T/C [24] 7.69% | viability, T/C [27] 10.5% | viability, T/C [28] 9.3% | viability, T/C [29] 8.86% | viability, T/C [30] 8.53% | viability, T/C [34] 9.98% | viability, T/C [35] 9.05% | viability, T/C [36] 7.21%
inactive: viability, T/C [1] 48.9% | viability, T/C [2] 17.3% | viability, T/C [3] 11% | viability, T/C [7] 22.6% | viability, T/C [8] 14.5% | viability, T/C [9] 9.1% | viability, T/C [13] 15.5% | viability, T/C [14] 11.7% | viability, T/C [15] 10.3% | viability, T/C [16] 9.55% | viability, T/C [19] 13.8% | viability, T/C [20] 12.3% | viability, T/C [25] 17.7% | viability, T/C [26] 11.3% | viability, T/C [31] 13.8% | viability, T/C [32] 11.2% | viability, T/C [33] 10.2%
< 31.6 nM: IC50 (second compound 0.0316 µM) | IC50 (second compound 0.1 µM) | IC50 (second compound 0.316 µM) | IC50 (second compound 1 µM) | IC50 (second compound 3.16 µM) | IC50 (second compound 10 µM)

CC1COCCN1c1cc(C2(S(C)(=N)=O)CC2)nc(-c2ccnc3[nH]ccc23)n1 (stereo not drawn) + Cc1cnc(CNC(=O)c2c(=O)c3ccc(N4CCCN(C)CC4)nc3n3c2sc2ccccc23)cn1
1010 nM: IC50 (second compound 0.1 µM)
inactive: viability, T/C [1] 96.4% | viability, T/C [2] 82.9% | viability, T/C [3] 89.2% | viability, T/C [4] 44.8% | viability, T/C [5] 59% | viability, T/C [6] 15.1% | viability, T/C [7] 73.8% | viability, T/C [8] 82.6% | viability, T/C [9] 53.6% | viability, T/C [10] 39.7% | viability, T/C [11] 51% | viability, T/C [12] 12.1% | viability, T/C [13] 54% | viability, T/C [14] 62.7% | viability, T/C [15] 47.2% | viability, T/C [16] 28.2% | viability, T/C [17] 36.4% | viability, T/C [18] 11.9% | viability, T/C [19] 50.3% | viability, T/C [20] 51.5% | viability, T/C [21] 41.6% | viability, T/C [22] 28.9% | viability, T/C [23] 36.8% | viability, T/C [24] 11.9% | viability, T/C [25] 45.8% | viability, T/C [26] 41.6% | viability, T/C [27] 38.5% | viability, T/C [28] 23.9% | viability, T/C [29] 28.7% | viability, T/C [30] 11% | viability, T/C [31] 41.4% | viability, T/C [32] 36.7% | viability, T/C [33] 37.1% | viability, T/C [34] 27.5% | viability, T/C [35] 28.1% | viability, T/C [36] 12.8%
196 nM: IC50 (second compound 0.316 µM)
< 31.6 nM: IC50 (second compound 3.16 µM) | IC50 (second compound 10 µM)
2310 nM: IC50 (second compound 0.0316 µM)
53.5 nM: IC50 (second compound 1 µM)

COc1ccc([C@@H](O)c2cc(-c3ncnc4cc(N5CCOCC5)ccc34)c(F)cc2Cl)nn1 + Cc1cnc(CNC(=O)c2c(=O)c3ccc(N4CCCN(C)CC4)nc3n3c2sc2ccccc23)cn1
inactive: viability, T/C [1] 94.3% | viability, T/C [2] 91.4% | viability, T/C [3] 84.5% | viability, T/C [4] 48.5% | viability, T/C [5] 39.1% | viability, T/C [6] 24.4% | viability, T/C [7] 61.6% | viability, T/C [8] 67.9% | viability, T/C [9] 45.4% | viability, T/C [10] 47.9% | viability, T/C [11] 31.5% | viability, T/C [12] 18.7% | viability, T/C [13] 58.9% | viability, T/C [14] 64.7% | viability, T/C [15] 46.9% | viability, T/C [16] 36.9% | viability, T/C [17] 29.5% | viability, T/C [18] 16.1% | viability, T/C [19] 49.7% | viability, T/C [20] 54.6% | viability, T/C [21] 37.2% | viability, T/C [22] 45.5% | viability, T/C [23] 30.1% | viability, T/C [24] 14.2% | viability, T/C [25] 46% | viability, T/C [26] 43.7% | viability, T/C [27] 36.6% | viability, T/C [28] 36% | viability, T/C [29] 31.9% | viability, T/C [30] 14.2% | viability, T/C [31] 33.7% | viability, T/C [32] 39.7% | viability, T/C [33] 36.5% | viability, T/C [34] 29.1% | viability, T/C [35] 28.8% | viability, T/C [36] 14.9%
1100 nM: IC50 (second compound 0.0316 µM)
321 nM: IC50 (second compound 0.316 µM)
486 nM: IC50 (second compound 0.1 µM)
50.1 nM: IC50 (second compound 1 µM)
< 31.6 nM: IC50 (second compound 3.16 µM) | IC50 (second compound 10 µM)

O=C(c1cc(Cc2n[nH]c(=O)c3ccccc23)ccc1F)N1CCN(C(=O)C2CC2)CC1 + Cc1cnc(CNC(=O)c2c(=O)c3ccc(N4CCCN(C)CC4)nc3n3c2sc2ccccc23)cn1
> 10000 nM: IC50 (second compound 0.0316 µM) | IC50 (second compound 0.1 µM) | IC50 (second compound 0.316 µM)
inactive: viability, T/C [1] 92.7% | viability, T/C [2] 74.2% | viability, T/C [3] 85.1% | viability, T/C [4] 71% | viability, T/C [5] 68.4% | viability, T/C [6] 75.7% | viability, T/C [7] 63.5% | viability, T/C [8] 75.8% | viability, T/C [9] 63.4% | viability, T/C [10] 64.4% | viability, T/C [11] 75.8% | viability, T/C [12] 59.2% | viability, T/C [13] 57.2% | viability, T/C [14] 52.8% | viability, T/C [15] 60.7% | viability, T/C [16] 59.2% | viability, T/C [17] 54.2% | viability, T/C [18] 45.6% | viability, T/C [19] 44.8% | viability, T/C [20] 43.7% | viability, T/C [21] 52.6% | viability, T/C [22] 42.6% | viability, T/C [23] 48.4% | viability, T/C [24] 42.6% | viability, T/C [25] 47.4% | viability, T/C [26] 43.7% | viability, T/C [27] 38.4% | viability, T/C [28] 38.6% | viability, T/C [29] 41.6% | viability, T/C [30] 35.8% | viability, T/C [31] 43.5% | viability, T/C [32] 39.7% | viability, T/C [33] 42.1% | viability, T/C [34] 38.4% | viability, T/C [35] 35.6% | viability, T/C [36] 35.4%
< 31.6 nM: IC50 (second compound 1 µM) | IC50 (second compound 3.16 µM) | IC50 (second compound 10 µM)

Reference: PubChem BioAssay AID2060509 (Molecular Pharmacology Branch, DTP, NCI, 2025)
